Results from patent US7960393B2, “Pyrimidine derivatives useful for the treatment of diseases mediated by CRTH2” (Actimis Pharmaceuticals, Inc., priority 2002, dated 2011).
Read-outs that look alike come from different tables or passages of the source.

How the values were obtained:
human CRTH2 = target: T1, human CRTH2 (Homo sapiens, UniProt Q9Y5Y4); experiment: Measurement of Ca2+ mobilization in the human CRTH2-transfected L1.2 cell line (Assay 1); format: cell-based
T1 construct: expressed in transfected cells; host or cells: L1.2 cells, pEAK expression vector, puromycin-selected
T1 sequence (Q9Y5Y4 1-395): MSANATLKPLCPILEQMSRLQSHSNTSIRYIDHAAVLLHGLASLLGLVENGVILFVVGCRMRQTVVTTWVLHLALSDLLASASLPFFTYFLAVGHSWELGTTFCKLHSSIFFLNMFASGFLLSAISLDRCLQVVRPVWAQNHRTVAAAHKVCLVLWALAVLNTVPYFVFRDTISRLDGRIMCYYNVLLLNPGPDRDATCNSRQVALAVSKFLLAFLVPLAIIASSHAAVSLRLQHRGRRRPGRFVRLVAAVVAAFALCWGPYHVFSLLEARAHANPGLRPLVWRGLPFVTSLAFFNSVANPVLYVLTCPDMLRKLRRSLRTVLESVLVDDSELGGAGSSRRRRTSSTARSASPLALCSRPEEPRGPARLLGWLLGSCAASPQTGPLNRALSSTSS
Description: Human CRTH2 cDNA was amplified from human eosinophil cDNA with gene specific primers containing restriction sites for cloning into pEAK vector (Edge Bio Systems). The human CRTH2 cDNA was cloned into the mammalian expression vector pEAK. This expression plasmid (40 μg) was transfected into L1.2 cells, at a cell density of 1×10^7 cells/500 μl, by using electroporation apparatus (Gene Pulser II, BioRad) at 250V/1,000 μF. One day after the transfection, puromycin (1 μg/ml, Sigma) was added into the cell culture plates. Two weeks after the transfection, grown cells were picked up for further growth.
[Measurement of Ca^2+ Mobilization in the Human CRTH2-Transfected L1.2 Cell Line] (Assay 1)
Ca^2+ loading buffer was prepared by mixing 5 μl of Fluo-3AM (2 mM in DMSO, final 1 μM, Molecular Probes) and 10 μl of pluronic F-127 (Molecular Probes) and diluting the resulting mixture in 10 ml of Ca^2+ assay buffer (20 mM HEPES pH 7.6, 0.1% BSA, 1 mM probenecid, Hanks' solution). The CRTH2 transfected cells which were prepared in Example 1 were washed with PBS, resuspended in Ca^2+ loading buffer at 1×10^7 cells/ml, and incubated for 60 min at room temperature. After incubation, cells were washed and resuspended in Ca^2+ assay buffer, then dispensed into transparent-bottom 96-well plates (#3631, Costar) at 2×10^5 cells/well. Cells were incubated with various concentrations of test compound for 5 minutes at room temperature. The emitted 480 nm fluorescence was measured on FDSS6000, a Ca^2+-measurement apparatus (Hamamatsu Photonics, Hamamatsu, Japan).
Assay results in Assay 1 are shown in Examples and tables of the Examples below. The data corresponds to the compounds as yielded by solid phase synthesis and thus to levels of purity of about 40 to 90%. For practical reasons, the compounds are grouped in four classes of activity as follows: IC50=A(< or =)10 nM<B(< or =)100 nM<C(< or =)500 nM<D

[1] = PGD2-induced Ca2+ mobilization in CRTH2-transfected L1.2 cells, compounds as yielded by solid phase synthesis, purity about 40 to 90%, read-out: Activity class

| SMILES | IC50 (human CRTH2; [1]) [nM] | melting point | IC50 (human CRTH2) [nM] |
| --- | --- | --- | --- |
| O=C(O)Cc1cnc(Cc2ccc(NC(=O)c3ccc4ccccc4c3)cc2)nc1N1CCCC1 [Example 2-31] | < 10 | 150 to 151 °C |  |
| CN(C)c1nc(Cc2cccc(NC(=O)c3ccc4ccccc4c3)c2)nc(Cl)c1CC(=O)O [Example 1-49] | 10 to 100 | 186 °C |  |
| CN(C)c1ccc(C(=O)Nc2ccc(Cc3nc(Cl)c(CC(=O)O)c(N(C)C)n3)cc2)cc1 [Example 1-37] | < 10 | > 111 °C |  |
| CN(C)c1nc(Cc2ccc(NC(=O)c3ccc(F)c(F)c3)cc2)nc(Cl)c1CC(=O)O [Example 1-45] | < 10 | > 94 °C |  |
| CC(c1ccc(NC(=O)/C=C/c2ccccc2)cc1)c1ncc(CC(=O)O)c(N(C)C)n1 (stereo not drawn) [Example 2-23] | < 10 | 150 to 153 °C |  |
| CN(C)c1nc(Cc2ccc(NC(=O)/C=C/c3ccccc3)cc2)nc(Cl)c1CC(=O)O [Example 1-33] | < 10 | > 160 °C |  |
| CC(=O)Nc1ccc(Cc2nc(Cl)c(CC(=O)O)c(N(C)CC(=O)NC3CCCC3)n2)cc1 [Example 1-10] | > 500 | > 118 °C |  |
| CN(CC(=O)NC1CCCC1)c1nc(Cc2ccc(NC(=O)c3cccnc3)cc2)nc(Cl)c1CC(=O)O [Example 1-4] | > 500 | > 174 °C |  |
| O=C(O)Cc1cnc(Cc2ccc(NC(=O)CC3CC3)cc2)nc1N1CCCC1 [Example 2-33] | 100 to 500 | 145 to 148 °C (dec.) |  |
| CN(C)c1nc(Cc2ccc(NC(=O)c3cccc(Cl)c3Cl)cc2)nc(Cl)c1CC(=O)O [Example 1-43] | 100 to 500 | 101 °C |  |
| CN(CC(=O)NC1CCCC1)c1nc(Cc2ccc(NC(=O)c3cc4ccccc4o3)cc2)nc(Cl)c1CC(=O)O [Example 1-25] | < 10 | 118 °C |  |
| CN(CC(=O)NC1CCCC1)c1nc(Cc2ccc(NS(=O)(=O)c3ccc4ccccc4c3)cc2)nc(Cl)c1CC(=O)O [Example 1-23] | > 500 | 116 °C |  |
| CN(CC(=O)NC1CCCC1)c1nc(Cc2ccc(NC(=O)CC3CCCCC3)cc2)nc(Cl)c1CC(=O)O [Example 1-13] | 10 to 100 | > 149 °C |  |
| O=C(O)Cc1c(Cl)nc(Cc2ccc(NC(=O)c3ccc(C(F)(F)F)cc3)cc2)nc1N1CCCC1 [Example 1-64] | < 10 | 162 °C |  |
| CN(C)c1nc(Cc2ccc(NC(=O)c3cccc(Cl)c3)cc2)nc(Cl)c1CC(=O)O [Example 1-47] | < 10 | > 108 °C |  |
| CN(CC(=O)NC1CCCC1)c1nc(Cc2ccc(NC(=O)C3CC3)cc2)nc(Cl)c1CC(=O)O [Example 1-6] | > 500 | > 146 °C |  |
| COc1ccc(C(=O)Nc2ccc(Cc3nc(Cl)c(CC(=O)O)c(N(C)C)n3)cc2)cc1 [Example 1-36] | < 10 | > 130 °C |  |
| CN(CC(=O)NC1CCCC1)c1nc(Cc2ccc(NC(=O)/C=C/c3ccccc3)cc2)nc(Cl)c1CC(=O)O [Example 1-17] | < 10 | 142 °C |  |
| CN(CC(=O)NC1CCCC1)c1nc(Cc2ccc(NC(=O)c3ccc(Cl)c(Cl)c3)cc2)nc(Cl)c1CC(=O)O [Example 1-19] | < 10 | 144 °C |  |
| O=C(O)Cc1c(Cl)nc(Cc2ccc(NC(=O)/C=C/c3ccccc3)cc2)nc1N1CCCC1 [Example 1-60] | < 10 | 120 °C |  |
| COc1ccc(C(=O)Nc2ccc(Cc3nc(Cl)c(CC(=O)O)c(N(C)CC(=O)NC4CCCC4)n3)cc2)cc1 [Example 1-20] | < 10 | 104 °C |  |
| O=C(O)Cc1c(Cl)nc(Cc2ccc(NC(=O)c3ccc([N+](=O)[O-])cc3)cc2)nc1N1CCCC1 [Example 1-53] | 10 to 100 | 134 °C |  |
| CC(C)Oc1ccc(C(=O)Nc2ccc(Cc3nc(Cl)c(CC(=O)O)c(N4CCCC4)n3)cc2)cc1 [Example 1-56] | < 10 | 156 °C |  |
| CN(C)c1nc(Cc2ccc(NC(=O)c3ccc(Br)cc3)cc2)nc(Cl)c1CC(=O)O [Example 1-42] | < 10 | 100 °C |  |
| CN(CC(=O)NC1CCCC1)c1nc(Cc2ccc(NC(=O)Cc3ccc(-c4ccccc4)cc3)cc2)nc(Cl)c1CC(=O)O [Example 1-24] | 100 to 500 | 124 °C |  |
| CN(C)c1nc(Cc2ccc(NC(=O)OCc3ccc(F)cc3)cc2)ncc1CC(=O)O [Example 9-2, {4-(dimethylamino)-2-[4-({[(4-fluorobenzyl)oxy]carbonyl}amino)benzyl]pyrimidin-5-yl}acetic acid] |  | 95 to 97 °C | < 10 |
| COc1cccc(C(=O)Nc2ccc(Cc3nc(Cl)c(CC(=O)O)c(N(C)C)n3)cc2)c1 [Example 1-48] | < 10 | > 75 °C |  |

Second part, led by results:

| IC50 (human CRTH2; [1]) [nM] | melting point | SMILES | IC50 (human CRTH2) [nM] |
| --- | --- | --- | --- |
| 10 to 100 | 212 to 213 °C (dec.) | CN(C)c1nc(Cc2ccc(NC(=O)c3ccc(C(F)(F)F)cc3)cc2)nc(N2CCOCC2)c1CC(=O)O [Example 7-20] |  |
| 10 to 100 | 129 to 132 °C | CN(C)c1nc(Cc2ccc(NC(=O)/C=C/c3ccccc3)cc2)nc(N2CCOCC2)c1CC(=O)O [Example 7-21] |  |
| 10 to 100 | 147 to 179 °C | CN(C)c1nc(Cc2ccc(NC(=O)c3cccc(-c4ccccc4)c3)cc2)nc(N2CCCC2)c1CC(=O)O [Example 7-15] |  |
| < 10 | 144 °C | COCCN(C)c1nc(Cc2ccc(NC(=O)c3ccc4ccccc4c3)cc2)nc(Cl)c1CC(=O)O [Example 3-5] |  |
| 10 to 100 | 123 to 125 °C | CN(C)c1nc(Cc2ccc(NC(=O)c3cccc(Oc4ccccc4)c3)cc2)nc(N2CCCC2)c1CC(=O)O [Example 7-23] |  |
| 100 to 500 | 132 to 135 °C | CN(C)c1nc(Cc2ccc(NC(=O)c3ccc(F)cc3)cc2)nc(N2CCCC2)c1CC(=O)O [Example 7-28] |  |
| < 10 | 148 to 150 °C | CCc1nc(Cc2ccc(NC(=O)c3ccc4ccccc4c3)cc2)nc(N(C)C)c1CC(=O)O [Example 8-8] |  |
| > 500 | 205 to 207 °C | CN(C)c1nc(Cc2ccc(NC(=O)c3ccc4ccccc4n3)cc2)nc(N2CCOCC2)c1CC(=O)O [Example 7-17] |  |
| 10 to 100 | 140 to 142 °C | CN(C)c1nc(Cc2ccc(NC(=O)c3ccc(Cl)cc3)cc2)nc(N2CCCC2)c1CC(=O)O [Example 7-29] |  |
| < 10 | 153 to 155 °C | CCc1nc(Cc2ccc(NC(=O)c3ccc(C(F)(F)F)cc3)cc2)nc(N(C)C)c1CC(=O)O [Example 8-9] |  |
| > 500 | 88 to 90 °C | COCc1nc(Cc2ccc(NC(=O)OCc3ccccc3)cc2)nc(N(C)C)c1CC(=O)O [Example 9-5] |  |
| 10 to 100 | 151 to 153 °C | CN(C)c1nc(Cc2ccc(NC(=O)/C=C/c3ccccc3)cc2)nc(N2CCCC2)c1CC(=O)O [Example 7-11] |  |
| < 10 | 137 to 140 °C | CN(C)c1nc(Cc2ccc(NC(=O)c3ccc(Oc4ccccc4)cc3)cc2)nc(N2CCCC2)c1CC(=O)O [Example 7-24] |  |
| 10 to 100 | 144 to 147 °C | CN(C)c1nc(Cc2ccc(NC(=O)c3ccc(C(F)(F)F)cc3)cc2)nc(N2CCCC2)c1CC(=O)O [Example 7-12] |  |
| < 10 | 192 to 195 °C (dec.) | COc1ccc(/C=C/C(=O)Nc2ccc(Cc3nc(N(C)C)c(CC(=O)O)c(N4CCOCC4)n3)cc2)cc1 [Example 7-25] |  |
| 10 to 100 | 158 to 160 °C | CC(C)c1nc(Cc2ccc(NC(=O)c3ccc4ccccc4c3)cc2)nc(N(C)C)c1CC(=O)O [Example 8-10] |  |
| > 500 | > 70 °C | CN(CC(=O)NC1CCCC1)c1nc(Cc2ccc(NCc3ccccc3)cc2)nc(Cl)c1CC(=O)O [Example 5-2] |  |
| < 10 | 126 to 128 °C | COCc1nc(Cc2ccc(NC(=O)c3ccc(C(F)(F)F)cc3)cc2)nc(N(C)C)c1CC(=O)O [Example 8-7] |  |
